From the supplement of paper PMC8671470

System: Mono-Mac-6
Assay: cell viability (% survival relative to DMSO control, bortezomib = 0%); higher = less cytotoxic
Settings: 1000 nM; 72 h
How it was run: (§1)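 In 384-well plates pre-printed with compounds at 1, 10, 100, 1000 or 10000 nM, duplicate wells received cells from 10 AML and 5 CML lines at densities within the linear growth range. The plates stayed at 37 °C with 5% CO2 for 72 h before CellTiter-Glo luminescence was recorded. Each entry is averaged percent survival. Scaling placed vehicle at 100% and a 10 µM positive control at 0%.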

Row | SMILES | cell viability [%]
1 | COc1ccc(-c2ccccc2)cc1NS(=O)(=O)c1cc(Cl)cc(Cl)c1O | 90.2
2 | C[C@H](NC(=O)c1sccc1OCc1ccc(Cl)cc1)c1ccccc1 | 98.3
3 | O=C(O)c1cc(Cl)cc(Cl)c1O [3,5-Dichlorosalicylic Acid] | 107
4 | O=C(O)C(=O)CBr [3-bromopyruvic acid] | 105
5 | NS(=O)(=O)c1ccc([N+](=O)[O-])cc1 [4-Nitrobenzenesulfonamide] | 111
6 | Cc1ccccc1C(C(=O)NC1CCCCC1)N(C(=O)Cn1ccnc1C)c1cccc(F)c1 (stereo unspecified) [AGI-5198] | 104
7 | CC(C)(C#N)c1cc(Cn2cncn2)cc(C(C)(C)C#N)c1 [Anastrozole] | 102
8 | O=C(O)C1=CC(=C(c2ccc(O)c(C(=O)O)c2)c2ccc(O)c(C(=O)O)c2)C=CC1=O [Aurintricarboxylic acid] | 105

Same assay, conditions: 10000 nM; 72 h

Row | SMILES | cell viability [%]
9 | CN(C)C(=O)[C@H](O)[C@H](Cc1ccccc1)NC(=O)c1cc2cc(Cl)ccc2[nH]1 | 83.8
10 | COc1ccc(CNC(=O)Nc2ncc([N+](=O)[O-])s2)cc1 | 70.2
11 | CCOP(=O)(OCC)C(=Cc1cc(C(C)(C)C)c(O)c(C(C)(C)C)c1)P(=O)(OCC)OCC | 57.6
12 | COc1ccc(-c2ccccc2)cc1NS(=O)(=O)c1cc(Cl)cc(Cl)c1O | 90.7
13 | C[C@H](NC(=O)c1sccc1OCc1ccc(Cl)cc1)c1ccccc1 | 88.8
14 | O=C(O)c1cc(Cl)cc(Cl)c1O [3,5-Dichlorosalicylic Acid] | 89.7
15 | O=C(O)C(=O)CBr [3-bromopyruvic acid] | 94.3
16 | NS(=O)(=O)c1ccc([N+](=O)[O-])cc1 [4-Nitrobenzenesulfonamide] | 89.8
17 | Cc1ccccc1C(C(=O)NC1CCCCC1)N(C(=O)Cn1ccnc1C)c1cccc(F)c1 (stereo unspecified) [AGI-5198] | 99
18 | CC(C)(C#N)c1cc(Cn2cncn2)cc(C(C)(C)C#N)c1 [Anastrozole] | 89.7
19 | O=C(O)C1=CC(=C(c2ccc(O)c(C(=O)O)c2)c2ccc(O)c(C(=O)O)c2)C=CC1=O [Aurintricarboxylic acid] | 89.7

System: MOLM-13
Assay: as above
Settings: 1 nM; 72 h
How it was run: as §1

Row | SMILES | cell viability [%]
20 | CN(C)C(=O)[C@H](O)[C@H](Cc1ccccc1)NC(=O)c1cc2cc(Cl)ccc2[nH]1 | 97.6
21 | COc1ccc(CNC(=O)Nc2ncc([N+](=O)[O-])s2)cc1 | 99.8
22 | CCOP(=O)(OCC)C(=Cc1cc(C(C)(C)C)c(O)c(C(C)(C)C)c1)P(=O)(OCC)OCC | 76
23 | COc1ccc(-c2ccccc2)cc1NS(=O)(=O)c1cc(Cl)cc(Cl)c1O | 101
24 | C[C@H](NC(=O)c1sccc1OCc1ccc(Cl)cc1)c1ccccc1 | 93.5
25 | O=C(O)c1cc(Cl)cc(Cl)c1O [3,5-Dichlorosalicylic Acid] | 92
26 | O=C(O)C(=O)CBr [3-bromopyruvic acid] | 95
27 | NS(=O)(=O)c1ccc([N+](=O)[O-])cc1 [4-Nitrobenzenesulfonamide] | 91.3
28 | Cc1ccccc1C(C(=O)NC1CCCCC1)N(C(=O)Cn1ccnc1C)c1cccc(F)c1 (stereo unspecified) [AGI-5198] | 87
29 | CC(C)(C#N)c1cc(Cn2cncn2)cc(C(C)(C)C#N)c1 [Anastrozole] | 97.4
30 | O=C(O)C1=CC(=C(c2ccc(O)c(C(=O)O)c2)c2ccc(O)c(C(=O)O)c2)C=CC1=O [Aurintricarboxylic acid] | 91.3

Same assay, conditions: 10 nM; 72 h

Row | SMILES | cell viability [%]
31 | CN(C)C(=O)[C@H](O)[C@H](Cc1ccccc1)NC(=O)c1cc2cc(Cl)ccc2[nH]1 | 98.6
32 | COc1ccc(CNC(=O)Nc2ncc([N+](=O)[O-])s2)cc1 | 108
33 | CCOP(=O)(OCC)C(=Cc1cc(C(C)(C)C)c(O)c(C(C)(C)C)c1)P(=O)(OCC)OCC | 81.8
34 | COc1ccc(-c2ccccc2)cc1NS(=O)(=O)c1cc(Cl)cc(Cl)c1O | 117
35 | C[C@H](NC(=O)c1sccc1OCc1ccc(Cl)cc1)c1ccccc1 | 95.7
36 | O=C(O)c1cc(Cl)cc(Cl)c1O [3,5-Dichlorosalicylic Acid] | 112
37 | O=C(O)C(=O)CBr [3-bromopyruvic acid] | 97.4
38 | NS(=O)(=O)c1ccc([N+](=O)[O-])cc1 [4-Nitrobenzenesulfonamide] | 92.3
39 | Cc1ccccc1C(C(=O)NC1CCCCC1)N(C(=O)Cn1ccnc1C)c1cccc(F)c1 (stereo unspecified) [AGI-5198] | 124
40 | CC(C)(C#N)c1cc(Cn2cncn2)cc(C(C)(C)C#N)c1 [Anastrozole] | 90.8
41 | O=C(O)C1=CC(=C(c2ccc(O)c(C(=O)O)c2)c2ccc(O)c(C(=O)O)c2)C=CC1=O [Aurintricarboxylic acid] | 101

Same assay, conditions: 100 nM; 72 h

Row | SMILES | cell viability [%]
42 | CN(C)C(=O)[C@H](O)[C@H](Cc1ccccc1)NC(=O)c1cc2cc(Cl)ccc2[nH]1 | 101
43 | COc1ccc(CNC(=O)Nc2ncc([N+](=O)[O-])s2)cc1 | 97.8
44 | CCOP(=O)(OCC)C(=Cc1cc(C(C)(C)C)c(O)c(C(C)(C)C)c1)P(=O)(OCC)OCC | 122
45 | COc1ccc(-c2ccccc2)cc1NS(=O)(=O)c1cc(Cl)cc(Cl)c1O | 113
46 | C[C@H](NC(=O)c1sccc1OCc1ccc(Cl)cc1)c1ccccc1 | 96.8
47 | O=C(O)c1cc(Cl)cc(Cl)c1O [3,5-Dichlorosalicylic Acid] | 83.9
48 | O=C(O)C(=O)CBr [3-bromopyruvic acid] | 89.2
49 | NS(=O)(=O)c1ccc([N+](=O)[O-])cc1 [4-Nitrobenzenesulfonamide] | 95.4
50 | Cc1ccccc1C(C(=O)NC1CCCCC1)N(C(=O)Cn1ccnc1C)c1cccc(F)c1 (stereo unspecified) [AGI-5198] | 108
51 | CC(C)(C#N)c1cc(Cn2cncn2)cc(C(C)(C)C#N)c1 [Anastrozole] | 88.2
52 | O=C(O)C1=CC(=C(c2ccc(O)c(C(=O)O)c2)c2ccc(O)c(C(=O)O)c2)C=CC1=O [Aurintricarboxylic acid] | 107

Same assay, conditions: 1000 nM; 72 h

Row | SMILES | cell viability [%]
53 | CN(C)C(=O)[C@H](O)[C@H](Cc1ccccc1)NC(=O)c1cc2cc(Cl)ccc2[nH]1 | 123
54 | COc1ccc(CNC(=O)Nc2ncc([N+](=O)[O-])s2)cc1 | 102
55 | CCOP(=O)(OCC)C(=Cc1cc(C(C)(C)C)c(O)c(C(C)(C)C)c1)P(=O)(OCC)OCC | 88.9
56 | COc1ccc(-c2ccccc2)cc1NS(=O)(=O)c1cc(Cl)cc(Cl)c1O | 81
57 | C[C@H](NC(=O)c1sccc1OCc1ccc(Cl)cc1)c1ccccc1 | 109
58 | O=C(O)c1cc(Cl)cc(Cl)c1O [3,5-Dichlorosalicylic Acid] | 110
59 | O=C(O)C(=O)CBr [3-bromopyruvic acid] | 93.8
60 | NS(=O)(=O)c1ccc([N+](=O)[O-])cc1 [4-Nitrobenzenesulfonamide] | 110
61 | Cc1ccccc1C(C(=O)NC1CCCCC1)N(C(=O)Cn1ccnc1C)c1cccc(F)c1 (stereo unspecified) [AGI-5198] | 80
